Source: patent US20200069685A1, “Dosing schedule for a combination of Ceritinib and an anti-PD-1 antibody molecule” (NOVARTIS AG, priority 2017, published 2020)

Experiments:
Format in all cases: in vivo, human
[1] = Relative bioavailability study in healthy subjects, light snack cohort; conditions: light snack (approximately 100-300 calories and 1.5 grams of fat), single 750 mg oral dose
[2] = Food effect study of ceritinib in healthy subjects; conditions: single oral dose 500 mg
[3] = Ceritinib steady state PK (AUC0-24 and Cmax) in the ceritinib and nivolumab combination cohorts; conditions: preliminary; ceritinib in combination with nivolumab
Experimental: The doses were reduced from 750 mg in the steps of 150 mg down to the lowest 300 mg. If the patient required doses lower than 300 mg, ceritinib was discontinued. Approximately 54% of patients initiating treatment at the recommended dose of 750 mg fasted required at least one dose adjustment due to adverse reaction, with a median time to first dose reduction of approximately 7 weeks. However, based on the preliminary data from 36 patients, who were enrolled to 4 cohorts to the concomitant combination therapy of ceritinib and nivolumab, the rates of severe rash (even grade 3) were unexpectedly higher. The cohorts were as follows: cohort 1 (n=8), ceritinib 450 mg daily with a low fat meal in combination with nivolumab 3 mg/kg Q2W; cohort 2 (n=6), ceritinib 450 mg daily with a low fat meal in combination with nivolumab 3 mg/kg Q2W; cohort 3 (n=11), ceritinib 300 mg daily with a low fat meal in combination with nivolumab 3 mg/kg Q2W; cohort 4 (n=11), ceritinib 300 mg daily with a low fat meal in combination with nivolumab 3 mg/kg Q2W. Both dose levels, i.e. 450 mg and 300 mg of ceritinib, administered with the low fat meal led to severe rash. The 450 mg dose level had higher rates of some adverse events, especially grade-3 rash, than expected based on data from either single agent. […]

[4] = Ceritinib alone: side effects and dose adjustments in patients
Experimental: The doses were reduced from 750 mg in the steps of 150 mg down to the lowest 300 mg. If the patient required doses lower than 300 mg, ceritinib was discontinued. Approximately 54% of patients initiating treatment at the recommended dose of 750 mg fasted required at least one dose adjustment due to adverse reaction, with a median time to first dose reduction of approximately 7 weeks. However, based on the preliminary data from 36 patients, who were enrolled to 4 cohorts to the concomitant combination therapy of ceritinib and nivolumab, the rates of severe rash (even grade 3) were unexpectedly higher. The cohorts were as follows: cohort 1 (n=8), ceritinib 450 mg daily with a low fat meal in combination with nivolumab 3 mg/kg Q2W; cohort 2 (n=6), ceritinib 450 mg daily with a low fat meal in combination with nivolumab 3 mg/kg Q2W; cohort 3 (n=11), ceritinib 300 mg daily with a low fat meal in combination with nivolumab 3 mg/kg Q2W; cohort 4 (n=11), ceritinib 300 mg daily with a low fat meal in combination with nivolumab 3 mg/kg Q2W. Both dose levels, i.e. 450 mg and 300 mg of ceritinib, administered with the low fat meal led to severe rash. The 450 mg dose level had higher rates of some adverse events, especially grade-3 rash, than expected based on data from either single agent. The proportion of patients with grade-3 rash was higher at the 450 mg dose level, 4/14 patients (29%), than at the 300 mg dose level, 3/22 patients (14%). With regard to the efficacy of the combination therapy, of the 14 patients treated at the 450 mg dose level, 9 (64%) achieved a confirmed partial response. Of the 22 patients treated at the 300 mg dose level, 4 (18%) achieved a confirmed complete (1 patient) or partial (3 patients) response; however, limited follow up, especially for cohort 4, confounded the assessment of confirmed response. The disease control rate (DCR) was similar for the 450 mg and 300 mg dose levels, 79% and 82% respectively. […] However, the 300 mg dose level appeared to have a lower number of objective responses, although this observation was based on a small number of patients with limited follow-up. […] Therefore, based on the safety, efficacy, and PK data a new beneficial dosing regimen is provided that is expected to improve tolerability while maintaining exposure similar to that observed at the 450 mg dose level. We provide herein a dosing regimen for the combination therapy of ceritinib and an anti-PD-1 antibody molecule, where ceritinib is administered for 2 cycles before initiation of combination therapy with nivolumab. […]

[5] = high-fat meal (approximately 1000 calories and 58 grams of fat)
[6] = low-fat meal (approximately 330 calories and 9 grams of fat)

SMILES: Cc1cc(Nc2ncc(Cl)c(Nc3ccccc3S(=O)(=O)C(C)C)n2)c(OC(C)C)cc1C1CCNCC1 [ceritinib, 5-chloro-N2-(2-isopropoxy-5-methyl-4-(piperidin-4-yl)phenyl)-N4-[2-(propane-2-sulfonyl)-phenyl]-pyrimidine-2,4-diamine]
- increase of AUCinf compared to the fasted condition [1]: 54%
- increase of Cmax compared to the fasted condition [1]: 45%
- increase of AUCinf compared to the fasted state [2, 5]: 73%
- increase of Cmax compared to the fasted state [2, 5]: 41%
- increase of AUCinf compared to the fasted state [2, 6]: 58%
- increase of Cmax compared to the fasted state [2, 6]: 43%
- steady state exposure (AUC0-24 and Cmax) at 300 mg with food relative to 450 mg with food [3]: 60-65%
- rash [4]: observed rarely
- side effects observed [4]: nausea, diarrhea, vomiting, fatigue, ALT/AST elevation, constipation, abdominal pain
- median time to first dose reduction ([4]; 750 mg fasted): approximately 7 weeks
- patients who required at least one dose adjustment due to adverse reaction ([4]; recommended dose of 750 mg fasted): Approximately 54%
